Results taken from publication PMC6383929, “Design, antimicrobial activity and mechanism of action of Arg-rich ultra-short cationic lipopeptides” (PLoS ONE, 2019).
Values after ≈ are worked out from the molar mass of the structure shown. Where a SMILES comes first, the peptide text is derived from it. The star is where a group is joined. Lauroyl = CCCCCCCCCCCC(=O)*

Legend:
[1] = tested on: S. maltophilia ATCC 13637; type: cell-based, Stenotrophomonas maltophilia; details: ATCC 13637, 48 h
Description: (§1) Bacteria used in this study were Escherichia coli ATCC 25922 and O18K1H7, Staphylococcus aureus ATCC 25923 and ATCC 29213, Pseudomonas aeruginosa ATCC 27853, Staphylococcus epidermidis ATCC 12228, Enterococcus faecalis ATCC 29212, Bacillus subtilis DSM 4181, Listeria monocytogenes DSM 20600, Salmonella typhimurium ATCC 14028, Acinetobacter baumannii ATCC 19606 and 17978, Klebsiella pneumoniae ATCC 13883 and 700603, Stenotrophomonas maltophilia ATCC 13637 and Burkholderia cenocepacia J2315. In addition to reference strains, a clinical isolate of E. faecalis vancomycin-resistant (VREF, strain M), and three clinical isolates of S. aureus methicillin-resistant (MRSA, strains E, G and 11), kindly provided by Dr. Lucilla Dolzani, were used. All MRSA strains are resistant to GEN, IPM, OXA, PEN, CIP and CEF; the S. aureus E strain is also resistant to CLI and ERY. VREF strain is resistant to AMK, ATM, GEN, NET, PEN, TEC, TET, TOB and VAN.
(§2) For the assays, overnight bacterial cultures were diluted 1:30 in fresh Mueller-Hinton Broth (MHB, Difco) and incubated at 37°C with shaking for approximately 2h.
(§3) The antimicrobial activity of USCLs was determined by the Minimum Inhibitory Concentration (MIC) assay, according to the guidelines of CLSI (Clinical & Laboratory Standards Institute) and described in [30, 31]. Briefly, the assays were performed in 96-well microplates in appropriate broth (MHB or SAB). […] […] The fungal suspension in SAB broth was used at a final concentration of 5 × 10^4 cells/mL. Microplates were then incubated at 30°C for 48h. The MIC value was taken as the lowest concentration of USCLs resulting in the complete inhibition of visible bacterial or fungal growth after appropriate incubation time. Results derive from at least three independent experiments carried out in duplicate.

[2] = RP-HPLC retention time (hydrophobicity); type: physicochemical; details: stated to reliably reflect the hydrophobicity in aqueous solution, assessed and provided by GenScript
Procedure: GenScript (Piscataway, NJ, USA) carried out the custom synthesis of USCLs by using high efficient solid phase peptide synthesis. The fatty acid was conjugated to the N-terminus of the peptide using the same procedure followed to attach protected amino acids to the growing peptide chain for synthesis. The purity (>90%), sequence and molecular weight of USCLs were assessed and provided by GenScript using RP-HPLC and ESI-MS. USCLs were dissolved in sterile water or DMSO at 10 mg/mL, according to manufacturer's indications.

P. aeruginosa ATCC 27853 = type: cell-based, Pseudomonas aeruginosa; details: ATCC 27853, 24 h
Description: as §1, §2
(§4) The antimicrobial activity of USCLs was determined by the Minimum Inhibitory Concentration (MIC) assay, according to the guidelines of CLSI (Clinical & Laboratory Standards Institute) and described in [30, 31]. Briefly, the assays were performed in 96-well microplates in appropriate broth (MHB or SAB). […] For bacteria, a mid-log phase bacterial suspension at 2.5 × 10^5 CFU/mL in MHB was used, and the microplates incubated at 37°C for 24h. The fungal suspension in SAB broth was used at a final concentration of 5 × 10^4 cells/mL. Microplates were then incubated at 30°C for 48h. The MIC value was taken as the lowest concentration of USCLs resulting in the complete inhibition of visible bacterial or fungal growth after appropriate incubation time. Results derive from at least three independent experiments carried out in duplicate.

B. cenocepacia J2315 = type: cell-based, Burkholderia cenocepacia; details: 48 h
Description: as §1, §2, §3

E. coli ATCC 25922 = type: cell-based, Escherichia coli; details: ATCC 25922, 24 h
Description: as §1, §2, §4

E. coli O18K1H7 = type: cell-based, Escherichia coli; details: O18K1H7, 24 h
Description: as §1, §2, §4

S. aureus ATCC 25923 = type: cell-based, Staphylococcus aureus; details: ATCC 25923, 24 h
Description: as §1, §2, §4

[3] = tested on: S. aureus G (MRSA clinical isolate); type: cell-based, Staphylococcus aureus; details: G ( clinical isolate, 24 h)
Description: as §1, §2, §4

[4] = tested on: S. aureus E (MRSA clinical isolate); type: cell-based, Staphylococcus aureus; details: E ( clinical isolate, 24 h)
Description: as §1, §2, §4

[5] = tested on: S. aureus 11 (MRSA clinical isolate); type: cell-based, Staphylococcus aureus; details: 11 ( clinical isolate, 24 h)
Description: as §1, §2, §4

C. albicans ATCC 90029 = type: cell-based, Candida albicans; details: ATCC 90029, 48 h
Procedure: (§5) Fungal strains used were Candida albicans ATCC 90029 and SC5314. Fungi were grown on Sabouraud dextrose (SAB, Difco) agar plates at 30°C for 48h. The initial fungal inoculum was prepared by picking and suspending five colonies in 5 mL of sterile PBS.
as §4

C. albicans SC 5314 = type: cell-based, Candida albicans; details: SC 5314, 48 h
Procedure: as §5, §4

A. baumannii ATCC 17978 = type: cell-based, Acinetobacter baumannii; details: ATCC 17978, 24 h
Description: as §1, §2, §4

E. faecalis ATCC 29212 = type: cell-based, Enterococcus faecalis; details: ATCC 29212, 24 h
Description: as §1, §2, §4

[6] = tested on: E. faecalis M (VREF clinical isolate); type: cell-based, Enterococcus faecalis; details: M (VREF clinical isolate, 24 h)
Description: as §1, §2, §4

K. pneumoniae ATCC 13883 = type: cell-based, Klebsiella pneumoniae; details: ATCC 13883, 24 h
Description: as §1, §2, §4

[7] = tested on: K. pneumoniae ATCC 700603; type: cell-based, Klebsiella pneumoniae; details: ATCC 700603, 24 h
Description: as §1, §2, §4

[8] = tested on: L. monocytogenes DSM 20600; type: cell-based, Listeria monocytogenes; details: DSM 20600, 24 h
Description: as §1, §2, §4

[9] = tested on: S. typhimurium ATCC 14028; type: cell-based, Salmonella typhimurium; details: ATCC 14028, 24 h
Description: as §1, §2, §4

B. subtilis DSM 4181 = type: cell-based, Bacillus subtilis; details: DSM 4181, 24 h
Description: as §1, §2, §4

S. aureus ATCC 29213 = type: cell-based, Staphylococcus aureus; details: ATCC 29213, 24 h
Description: as §1, §2, §4

[10] = tested on: S. epidermidis ATCC 12228; type: cell-based, Staphylococcus epidermidis; details: ATCC 12228, 24 h
Description: as §1, §2
The antimicrobial activity of USCLs was determined by the Minimum Inhibitory Concentration (MIC) assay, according to the guidelines of CLSI (Clinical & Laboratory Standards Institute) and described in [30, 31]. […]

A. baumannii ATCC 19606 = type: cell-based, Acinetobacter baumannii; details: ATCC 19606, 24 h
Description: as §1, §2, §4

SMILES | MIC [1] [µg/mL] | Retention time [2] [min] | MIC (B. cenocepacia J2315) [µg/mL] | MIC (E. coli O18K1H7) [µg/mL] | MIC (S. aureus ATCC 25923) [µg/mL] | MIC [3] [µg/mL] | MIC [4] [µg/mL] | MIC [5] [µg/mL] | MIC (C. albicans ATCC 90029) [µg/mL] | MIC (C. albicans SC 5314) [µg/mL] | MIC (A. baumannii ATCC 17978) [µg/mL] | MIC (E. faecalis ATCC 29212) [µg/mL] | MIC [6] [µg/mL] | MIC (K. pneumoniae ATCC 13883) [µg/mL] | MIC [7] [µg/mL] | MIC [8] [µg/mL] | MIC [9] [µg/mL] | MIC (B. subtilis DSM 4181) [µg/mL] | MIC [10] [µg/mL] | MIC (A. baumannii ATCC 19606) [µg/mL] | also measured
CCCCCCCCCCCC(=O)N[C@@H](CCCNC(=N)N)C(=O)N[C@@H](CCCNC(=N)N)C(=O)N[C@@H](Cc1ccccc1)C(=O)N[C@@H](Cc1c[nH]c2ccccc12)C(=O)N[C@@H](CCCNC(=N)N)C(=O)N[C@@H](CCCNC(=N)N)C(N)=O [Lp-F^RR, Lau-RRFWRR-NH2] (Lauroyl-RRFWRR-NH2) | 12.5 (≈ 10.8 µM) | 22.087 | 12.5 (≈ 10.8 µM) | 25 (≈ 21.6 µM) | 3.125 (≈ 2.7 µM) | 3.125 (≈ 2.7 µM) | 3.125 (≈ 2.7 µM) | 3.125 (≈ 2.7 µM) | 1.56 (≈ 1.35 µM) | 100 (≈ 86.4 µM) | 25 (≈ 21.6 µM) | 6.25 (≈ 5.4 µM) | 6.25 to 12.5 | 25 (≈ 21.6 µM) | 25 (≈ 21.6 µM) | 1.56 (≈ 1.35 µM) | 25 (≈ 21.6 µM) | 1.56 (≈ 1.35 µM) | – | – | MIC (P. aeruginosa ATCC 27853): 12.5 µg/mL (≈ 10.8 µM); MIC (E. coli ATCC 25922): 12.5 µg/mL (≈ 10.8 µM)
CCCCCCCCCCCC(=O)N[C@@H](CCCNC(=N)N)C(=O)N[C@H](C(=O)N[C@@H](Cc1c[nH]c2ccccc12)C(=O)N[C@@H](CCCNC(=N)N)C(N)=O)[C@@H](C)CC [Lp-I] (Lauroyl-RIWR-NH2) | – | – | 12.5 (≈ 15.4 µM) | – | – | 3.125 (≈ 3.85 µM) | 3.125 (≈ 3.85 µM) | – | – | – | 25 (≈ 30.8 µM) | – | – | 100 (≈ 123 µM) | 50 (≈ 61.6 µM) | – | 25 (≈ 30.8 µM) | – | 3.125 (≈ 3.85 µM) | 25 (≈ 30.8 µM) | MIC (S. aureus ATCC 29213): 3.125 µg/mL (≈ 3.85 µM)
CCCCCCCCCCCC(=O)N[C@@H](CCCNC(=N)N)C(=O)N[C@@H](CCSC)C(=O)N[C@@H](Cc1c[nH]c2ccccc12)C(=O)N[C@@H](CCCNC(=N)N)C(N)=O [Lp-M, Lau-RMWR-NH2] (Lauroyl-RMWR-NH2) | 12.5 (≈ 15.1 µM) | 12.393 | 25 (≈ 30.2 µM) | 25 (≈ 30.2 µM) | 6.25 (≈ 7.54 µM) | 6.25 (≈ 7.54 µM) | 6.25 (≈ 7.54 µM) | 6.25 (≈ 7.54 µM) | 3.125 (≈ 3.77 µM) | 12.5 (≈ 15.1 µM) | 25 (≈ 30.2 µM) | 6.25 (≈ 7.54 µM) | 12.5 (≈ 15.1 µM) | >100 | 100 (≈ 121 µM) | 3.125 (≈ 3.77 µM) | – | 3.125 (≈ 3.77 µM) | 3.125 (≈ 3.77 µM) | 25 (≈ 30.2 µM) | –
